Key:
Assay in all cases: relative viability (nuclei count vs DMSO), 5 days (fraction); higher = more cells survive
[1] = compound: COc1cc2ncn(-c3cc(OCc4ccccc4C(F)(F)F)c(C(N)=O)s3)c2cc1OC + COc1cc2c(Oc3ccc(NC(=O)C4(C(=O)Nc5ccc(F)cc5)CC4)cc3F)ccnc2cc1OCCCN1CCOCC1 [Foretinib] (partner 0.25 µM)
In short: (§1)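 One day after seeding in 1536-well plates, lung cancer cell lines were dosed by pin tool. Dosing was either single-drug or a fixed anchor-drug dose plus five library-drug doses (not always all listed) in √10 steps. After 5 days, nuclei were stained in one fix-and-stain step and counted on 4× images, and relative viability is the nuclei count of treated wells over that of vehicle wells, given as the median of duplicate plates.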

[2] = compound: COc1cc2ncn(-c3cc(OCc4ccccc4C(F)(F)F)c(C(N)=O)s3)c2cc1OC + Nc1nc2[nH]cc(CCc3ccc(C(=O)N[C@@H](CCC(=O)O)C(=O)O)cc3)c2c(=O)[nH]1 [Pemetrexed] (partner 0.2 µM)
In short: as §1

[3] = compound: COc1cc2ncn(-c3cc(OCc4ccccc4C(F)(F)F)c(C(N)=O)s3)c2cc1OC + O=C(c1cc(Cc2n[nH]c(=O)c3ccccc23)ccc1F)N1CCN(C(=O)C2CC2)CC1 [Olaparib] (partner 8 µM)
In short: as §1

[4] = compound: COc1cc2ncn(-c3cc(OCc4ccccc4C(F)(F)F)c(C(N)=O)s3)c2cc1OC + Cc1nc(NC(=O)N2CCC[C@H]2C(N)=O)sc1-c1ccnc(C(C)(C)C(F)(F)F)c1 [Alpelisib] (partner 2 µM)
In short: as §1

| Cell Line | relative viability ([1]; first compound 0.05 µM) | relative viability ([1]; first compound 0.1581 µM) | relative viability ([1]; first compound 0.5 µM) | relative viability ([1]; first compound 5 µM) | relative viability ([2]; first compound 0.05 µM) | relative viability ([2]; first compound 0.1581 µM) | relative viability ([2]; first compound 0.5 µM) | relative viability ([2]; first compound 1.581 µM) | relative viability ([2]; first compound 5 µM) | relative viability ([3]; first compound 0.05 µM) | relative viability ([3]; first compound 0.1581 µM) | relative viability ([3]; first compound 0.5 µM) | relative viability ([3]; first compound 1.581 µM) | relative viability ([3]; first compound 5 µM) | relative viability ([4]; first compound 0.05 µM) | relative viability ([4]; first compound 0.1581 µM) | relative viability ([4]; first compound 0.5 µM) | relative viability ([4]; first compound 1.581 µM) | relative viability ([4]; first compound 5 µM) | relative viability ([1]; first compound 1.581 µM) |
| --- | --- | --- | --- | --- | --- | --- | --- | --- | --- | --- | --- | --- | --- | --- | --- | --- | --- | --- | --- | --- |
| H3255 | 0.876 | 1.06 | 0.714 | 0.542 | 0.556 | 0.602 | 0.552 | 0.332 | 0.341 | 0.532 | 0.534 | 0.541 | 0.415 | 0.332 | 0.626 | 0.796 | 0.444 | 0.335 | 0.233 | – |
| EPLC-272H | – | 0.338 | 0.102 | 0.104 | 0.25 | 0.206 | 0.104 | 0.121 | 0.206 | 0.177 | 0.221 | 0.0762 | 0.0805 | 0.146 | 0.9 | 0.869 | 0.402 | 0.126 | 0.129 | 0.102 |
| RERF-LC-KJ | 0.957 | 0.901 | 0.791 | 0.625 | 0.472 | 0.487 | 0.439 | 0.299 | 0.346 | 0.937 | 0.945 | 0.24 | 0.233 | 0.253 | 0.859 | 0.849 | 0.515 | 0.294 | 0.622 | – |
| NCI-H1793 | 0.925 | 0.825 | 0.506 | 0.164 | 0.788 | 1.01 | 0.276 | 0.164 | 0.107 | 0.216 | 0.837 | 0.436 | 0.177 | 0.117 | 0.611 | 0.745 | 0.394 | 0.22 | 0.191 | 0.24 |
| EKVX | 0.779 | 0.516 | 0.603 | 0.46 | 0.395 | 0.302 | 0.334 | 0.244 | 0.242 | 0.888 | 0.934 | 0.631 | 0.206 | 0.222 | 0.889 | 0.982 | 0.834 | 0.21 | 0.215 | – |
| ChaGo-K-1 | 0.915 | 0.89 | 0.71 | 0.172 | 0.263 | 0.251 | 0.232 | 0.175 | 0.153 | 0.398 | 0.389 | 0.312 | 0.208 | 0.12 | – | – | – | – | – | 0.266 |
| NCI-H23 | 1.02 | 0.759 | 0.564 | 0.138 | 0.648 | 0.583 | 0.208 | 0.184 | 0.112 | 0.187 | 0.239 | 0.166 | 0.128 | 0.0947 | 0.836 | 0.363 | 0.326 | 0.137 | 0.102 | 0.123 |
| EMC-BAC-2 | 1.11 | 1.01 | 0.815 | 0.212 | 0.459 | 0.446 | 0.441 | 0.338 | 0.311 | 0.467 | 0.48 | 0.359 | 0.259 | 0.216 | 0.804 | 0.799 | 0.639 | 0.403 | 0.149 | 0.309 |
| LOU-NH91 | 0.933 | 0.978 | 0.754 | 0.713 | 0.344 | 0.357 | 0.362 | 0.291 | 0.264 | 0.893 | 0.89 | 0.688 | 0.382 | 0.273 | 0.705 | 0.843 | 0.626 | 0.447 | 0.488 | 0.423 |
| LU99A | 0.564 | 0.87 | 0.572 | 0.216 | 0.204 | 0.169 | 0.204 | 0.154 | 0.146 | 0.241 | 0.273 | 0.225 | 0.152 | 0.108 | 0.488 | 0.495 | 0.36 | 0.189 | 0.167 | 0.302 |
| NCI-H1395 | 0.932 | 1.01 | 0.686 | 0.556 | 0.761 | 0.828 | 0.663 | 0.395 | 0.27 | 0.441 | 0.476 | 0.414 | 0.326 | 0.314 | 1.04 | 1.11 | 0.726 | 0.342 | 0.375 | 0.448 |
| NCI-H460 | 1.07 | 0.938 | 0.499 | 0.0214 | 0.0574 | 0.0651 | 0.0638 | 0.0225 | 0.0159 | 0.468 | 0.357 | 0.0734 | 0.0365 | 0.0215 | 0.51 | 0.537 | 0.0496 | 0.0115 | 0.0095 | 0.028 |
| 201T | 1.06 | 1.09 | 1.07 | 0.165 | 0.355 | 0.319 | 0.29 | 0.303 | 0.192 | 0.747 | 0.83 | 0.871 | 0.27 | 0.246 | 1 | 1.08 | 0.984 | 0.475 | 0.297 | 0.414 |
| NCI-H1944 | 0.804 | 1.03 | 0.743 | 0.131 | 0.666 | 0.635 | 0.536 | 0.178 | 0.0832 | 0.415 | 0.445 | 0.304 | 0.152 | 0.122 | 0.871 | 0.901 | 0.619 | 0.173 | 0.118 | 0.221 |
| NCI-H2405 | 0.998 | 0.817 | 0.531 | 0.361 | 1.12 | 1.01 | 0.399 | 0.377 | 0.367 | 0.795 | 0.809 | 0.326 | 0.312 | 0.331 | 0.788 | 0.634 | 0.402 | 0.401 | 0.38 | 0.359 |
| NCI-H1703 | 0.308 | – | 0.303 | 0.15 | – | – | – | – | – | 0.416 | 0.616 | 0.488 | 0.261 | 0.066 | 0.3 | 0.368 | 0.271 | 0.142 | 0.12 | – |
| NCI-H1755 | 0.583 | 0.896 | 0.635 | 0.315 | 0.43 | 0.434 | 0.426 | 0.299 | 0.286 | 0.816 | 0.827 | 0.714 | 0.447 | 0.319 | 0.945 | 0.953 | 0.716 | 0.352 | 0.262 | 0.362 |
